For one compound, IC50, inhibition and Ki results are on record in ChEMBL document CHEMBL2331312, “Dimerized linear mimics of a natural cyclopeptide (TMC-95A) are potent noncovalent inhibitors of the eukaryotic 20S proteasome” (J Med Chem, 2013).

Calls of active or inactive are those of the source. The rule behind the calls is not given here.

Experiment [1] addresses T1, Proteasome Macropain subunit MB1 (Homo sapiens, UniProt P28074).
T1 sequence (P28074 whole entry): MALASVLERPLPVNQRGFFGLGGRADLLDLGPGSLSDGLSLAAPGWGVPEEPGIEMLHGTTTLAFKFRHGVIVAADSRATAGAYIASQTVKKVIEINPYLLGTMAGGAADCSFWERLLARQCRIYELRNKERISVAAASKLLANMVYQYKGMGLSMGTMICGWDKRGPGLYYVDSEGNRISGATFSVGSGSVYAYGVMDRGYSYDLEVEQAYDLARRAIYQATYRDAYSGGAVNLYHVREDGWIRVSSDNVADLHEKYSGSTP
Description: Inhibition of chymotrypsin-like activity of human constitutive 20s proteasome beta-5 subunit using Suc-LLVY-AMC as substrate assessed as remaining activity incubated for 15 mins prior to substrate addition measured after 45 mins by fluorescence assay

Experiment [2] addresses T2, Proteasome Macropain subunit PRE2 (Saccharomyces cerevisiae S288c, UniProt P30656).
T2 sequence (P30656 whole entry): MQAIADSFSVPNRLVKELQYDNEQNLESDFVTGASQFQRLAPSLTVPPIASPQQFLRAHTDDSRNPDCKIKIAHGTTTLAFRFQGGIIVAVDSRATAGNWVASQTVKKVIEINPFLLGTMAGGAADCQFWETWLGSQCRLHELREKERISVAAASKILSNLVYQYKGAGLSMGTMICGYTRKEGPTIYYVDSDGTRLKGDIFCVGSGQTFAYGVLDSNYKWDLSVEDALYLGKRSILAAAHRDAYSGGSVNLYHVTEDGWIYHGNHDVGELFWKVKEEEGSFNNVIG
Description: Inhibition of chymotrypsin-like activity of yeast 20S proteasome beta-5 subunit using Suc-LLVY-AMC as substrate measured up to 45 mins by fluorescence assay

In experiment [3] the target is T3, Calpain-1 catalytic subunit (Homo sapiens) (UniProt P07384).
T3 sequence (whole entry): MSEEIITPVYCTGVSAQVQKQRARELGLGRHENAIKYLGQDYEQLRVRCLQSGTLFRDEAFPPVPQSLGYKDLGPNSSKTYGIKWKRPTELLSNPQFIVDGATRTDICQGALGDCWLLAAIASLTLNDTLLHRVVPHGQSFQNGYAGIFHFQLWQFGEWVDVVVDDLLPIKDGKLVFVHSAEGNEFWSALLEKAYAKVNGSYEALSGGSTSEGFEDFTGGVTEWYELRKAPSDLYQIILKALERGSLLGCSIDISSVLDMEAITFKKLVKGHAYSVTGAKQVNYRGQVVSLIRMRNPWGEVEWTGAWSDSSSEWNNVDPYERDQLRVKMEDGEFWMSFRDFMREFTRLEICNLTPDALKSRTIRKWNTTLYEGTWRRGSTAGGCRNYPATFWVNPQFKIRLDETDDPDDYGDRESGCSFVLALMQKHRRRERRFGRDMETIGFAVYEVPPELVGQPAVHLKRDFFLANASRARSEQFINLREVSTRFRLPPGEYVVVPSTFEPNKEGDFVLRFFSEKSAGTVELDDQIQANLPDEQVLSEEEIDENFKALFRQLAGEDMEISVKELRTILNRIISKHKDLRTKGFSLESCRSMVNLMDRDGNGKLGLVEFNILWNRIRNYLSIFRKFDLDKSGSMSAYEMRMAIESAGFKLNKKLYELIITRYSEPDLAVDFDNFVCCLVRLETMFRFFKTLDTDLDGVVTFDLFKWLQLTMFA
Put plainly: Inhibition of human calpain 1 using Suc-LLVY-AMC as substrate assessed as remaining enzyme activity at 20 uM incubated for 5 mins prior to substrate addition measured for 30 mins by fluorescence assay.

Experiment [4] addresses T1, Proteasome Macropain subunit MB1. The experiment can be described thus: Noncompetitive inhibition of chymotrypsin-like activity of human constitutive 20s proteasome beta-5 subunit using Suc-LLVY-AMC as substrate assessed as inhibition constant for dissociation of enzyme-substrate-inhibitor complex incubated for 15 mins prior to substrate addition measured after 45 mins by fluorescence assay.

Experiment [5] concerns the target Proteasome Macropain subunit (Homo sapiens, UniProt P49721). The experiment can be described thus: Inhibition of trypsin-like activity of human constitutive 20s proteasome beta-2 subunit using Boc-LRR-AMC as substrate assessed as remaining activity incubated for 15 mins prior to substrate addition measured after 45 mins by fluorescence assay.
For experiment [6], the target named is Cathepsin B (Homo sapiens) (UniProt P07858). Put plainly: Inhibition of human cathepsin B using Suc-LLVY-AMC as substrate assessed as remaining enzyme activity at 20 uM incubated for 15 mins prior to substrate addition measured for 30 mins by fluorescence assay.
For experiment [7], the target named is T1, Proteasome Macropain subunit MB1. The experiment can be described thus: Noncompetitive inhibition of chymotrypsin-like activity of human constitutive 20s proteasome beta-5 subunit using Suc-LLVY-AMC as substrate assessed as inhibition constant for dissociation of enzyme-inhibitor complex incubated for 15 mins prior to substrate addition measured after 45 mins by fluorescence assay.

Proteasome Macropain subunit, sequence (P49721 whole entry): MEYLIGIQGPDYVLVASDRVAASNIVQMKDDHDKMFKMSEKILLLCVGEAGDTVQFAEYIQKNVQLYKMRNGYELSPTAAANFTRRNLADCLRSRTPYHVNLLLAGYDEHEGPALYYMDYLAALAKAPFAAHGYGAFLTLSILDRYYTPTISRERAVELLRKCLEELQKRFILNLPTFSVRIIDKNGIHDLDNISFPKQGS

Broadly, the IC50 is the concentration needed to halve the response being measured. As a reminder, the Ki is a measure of affinity in units of concentration, obtained from inhibition or displacement. In the case of `C[C@H](NC(=O)[C@@H](N)Cc1ccc(OCc2ccccc2)cc1)C(=O)N[C@@H](C[C@]1(O)C(=O)Nc2ccccc21)C(=O)NCc1ccccc1`, the IC50 is 11.6 µM in experiment [1], 9.4 µM in experiment [2] and “Not Active” in experiment [5]. Moreover, the inhibition result in experiment [3] and in experiment [6] was “inactive” in each case. Moreover, the Ki in experiment [4] and in experiment [7] was 24.5 µM throughout.
